Measured values from patent publication US12221436B2, “Anthranilamides, their use as insecticide and processes for preparing the same” (PI INDUSTRIES LTD., priority 2018, dated 2025).

What was measured:
[1] = test system: Bemisia tabaci; assay: Example D: Bemisia tabaci, leaf dip method (cotton leaves); type: in vivo; conditions: foliar, freshly emerged adults, 72 h after release, dead and moribund combined, read-out: percent mortality
Method: (§1) Test solutions were prepared according to the procedure described herein below (500 PPM):
(§2) • 1. Eppendorf Vortex mixer (ThermoMixer C) and 1.5 mL Eppendorf tubes • 2. Beaker—100 mL • 3. Micro-pipette Reagents: • 1. Surfactant Solution • 2. De-mineralized (DM) Water Procedure: • 1. Weigh 10 mg of the compound of the present invention to be tested in an Eppendorf Tube. • 2. Add 200 mg of the Surfactant Solution into the tube. • 3. Fix the tube in Eppendorf Vortex mixer and start vortexing at 2000 rpm. • 4. Mix on Vortex mixer for 30 min. After 30 min, observe the sample over a microscope at 400× resolution. • 5. Add 1.0 mL DM water into the tube, close the cap, shake the tube thoroughly and transfer the contents, along with the beads, into a beaker. • 6. To rinse the tube, add another 1.0 mL of DM water into the tube, close the cap, shake well and transfer this into the same beaker. • 7. Repeat […] one more time so that the tube is rinsed well and all the compound of the present invention is transferred to the beaker. • 8. Add 16.8 mL of DM water into the beaker and stir well. • 9. Immediately use this sample for biological testing. • 10. Further dilutions can be prepared by taking appropriate quantity of the aliquot of Step 8, immediately after stirring, and diluting as per requirement. The sample solution must be well mixed just before biological testing.
Leaf dip method was used for screening, wherein the required quantity of the compounds were weighed and dissolved in the test solution into the tube and vortex at 2000 rpm with Zirconia beads for 90 min and for proper mixing, then mixed with 0.01% Triton-X solution to get the desired test concentration. Cotton leaves were dipped in the solution for 10 seconds, shade dried for 20 min and then leaves were kept in glass units with petiole dipped in water. […] Observations on dead, moribund and live […] were recorded at 72 h after the release. Percent mortality was calculated by combining dead and moribund adults. […]

[2] = test system: Myzus persicae; assay: Example E: Myzus persicae, leaf dip method (capsicum leaves); type: in vivo; conditions: foliar, third instar nymphs, 72 h after release, dead and moribund combined, read-out: percent mortality
Method: as §1, §2
Leaf dip method was used for screening, wherein the required quantity of the compounds were weighed and dissolved in the test solution into the tube and vortex at 2000 rpm with Zirconia beads for 90 min and for proper mixing, then mixed with 0.01% Triton-X solution to get the desired test concentration. Capsicum leaves were dipped in the solution for 10 seconds, shade dried for 20 min and then leaves were kept in glass units with petiole dipped in water. Known numbers of third instar nymphs were released and were kept in the plant growth chamber at a temperature of 25° C. and Relative Humidity of 70%. Observations on dead, moribund and live nymphs were recorded at 72 h after the release. Percent mortality was calculated by combining dead and moribund nymphs. The following compound numbers

Compound | mortality at 300 ppm [1] [%] | mortality at 300 ppm [2] [%]
Cc1cc(Cl)cc(C(=O)NC(C)(C)C)c1NC(=O)c1cc(OC2CSC2)nn1-c1ncccc1Cl [Compound 97, N-(2-(tert-butylcarbamoyl)-4-chloro-6-methylphenyl)-1-(3-chloropyridin-2-yl)-3-(thietan-3-yloxy)-1H-pyrazole-5-carboxamide] | > 50 | > 50
Cc1cc(Cl)cc(C(=O)NC(C)(C)C)c1NC(=O)c1cc(OC2CS(=O)(=O)C2)nn1-c1ncccc1Cl [Compound 99, N-(2-(tert-butylcarbamoyl)-4-chloro-6-methylphenyl)-1-(3-chloropyridin-2-yl)-3-((1,1-dioxidothietan-3-yl)oxy)-1H-pyrazole-5-carboxamide] | > 50 | –
CC(C)(C)NC(=O)c1cc(Cl)cc(Cl)c1NC(=O)c1cc(OC2CSC2)nn1-c1ncccc1Cl [Compound 176, N-(2-(tert-butylcarbamoyl)-4,6-dichlorophenyl)-1-(3-chloropyridin-2-yl)-3-(thietan-3-yloxy)-1H-pyrazole-5-carboxamide] | > 50 | > 50
